Source: patent US20220356170A1, “SREBP INHIBITOR COMPRISING A THIOPHENE CENTRAL RING” (Capulus Therapeutics, LLC, priority 2019, published 2022)

Tests used:
Assay in all cases: Cancer cell growth inhibition, Sulforhodamine B
Assay type in all cases: cell-based
THP-1 = conditions: Homo sapiens, THP-1, 72 h, THP-1 (hematological)
In short: (§1)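 Cells were treated for 72 hr in growth media with compounds from six 10-fold DMSO stock dilutions (10 mM to 0.1 uM stocks), final DMSO 0.1%, single data point per concentration. Growth was measured by Sulforhodamine B protein staining, and IC50, GI50, IC10, TGI, LC50, IC90 and GI90 were derived where calculable.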

RAMOS = conditions: Homo sapiens, 72 h, RAMOS (hematological)
In short: as §1

A204 = conditions: Homo sapiens; A204 (muscle), 72 hr; Responder Cell Lines
In short: as §1

JEG3 = conditions: Homo sapiens, JEG-3; JEG3 (placenta), 72 hr; Responder Cell Lines
In short: as §1

MINO = conditions: Homo sapiens, 72 h, MINO (hematological)
In short: as §1

NCIH82 = conditions: Homo sapiens, NCI-H82, 72 h, NCIH82 (lung)
In short: as §1

TE671 = conditions: Homo sapiens, TE-671, 72 h, TE671 (muscle)
In short: as §1

RDES = conditions: RD-ES; RDES (bone), 72 hr; Non-Responder Cell Lines with IC50 >10 uM or Not Determined
In short: as §1

RD = conditions: Homo sapiens; RD (muscle), 72 hr; Non-Responder Cell Lines with IC50 >10 uM or Not Determined
In short: as §1

HCT15 = conditions: Homo sapiens, HCT-15; HCT15 (colon), 72 hr; Responder Cell Lines
In short: as §1

MT3 = conditions: MT-3, 72 h, MT3 (breast)
In short: as §1

OVCAR4 = conditions: Homo sapiens, OVCAR-4; OVCAR4 (ovary), 72 hr; Non-Responder Cell Lines with IC50 >10 uM or Not Determined
In short: as §1

SNB75 = conditions: Homo sapiens, SNB-75; SNB75 (brain), 72 hr; Non-Responder Cell Lines with IC50 >10 uM or Not Determined
In short: as §1

SKBR3 = conditions: Homo sapiens, SK-BR-3, 72 h, SKBR3 (breast)
In short: as §1

SKNSH = conditions: Homo sapiens, SK-N-SH, 72 h, SKNSH (brain)
In short: as §1

MV4-11 = conditions: Homo sapiens, MV4-11, 72 h, MV4-11 (hematological)
In short: as §1

SF295 = conditions: Homo sapiens, SF-295, 72 h, SF295 (brain)
In short: as §1

C33A = conditions: Homo sapiens, C-33-A; 72 hr; Responder Cell Lines
In short: as §1

UMUC3 = conditions: Homo sapiens; UMUC3 (bladder), 72 hr; Non-Responder Cell Lines with IC50 >10 uM or Not Determined
In short: as §1

PANC1 = conditions: Homo sapiens, PANC-1; PANC1 (pancreas), 72 hr; Non-Responder Cell Lines with IC50 >10 uM or Not Determined
In short: as §1

MIAPACA2 = conditions: Homo sapiens, MIA PaCa-2; MIAPACA2 (pancreas), 72 hr; Non-Responder Cell Lines with IC50 >10 uM or Not Determined
In short: as §1

[1] = Non-Responder Cell Lines with IC50 >10 uM or Not Determined

CC(C)(O)c1cc(-c2csc(-c3ccc(C(=O)N4CCC(O)CC4)cc3Cl)c2)ccn1 [Compound 1, (3-chloro-4-(4-(2-(2-hydroxypropan-2-yl)pyridin-4-yl)thiophen-2-yl)phenyl)(4-hydroxypiperidin-1-yl)methanone]
IC50 (THP-1; [1]): > 10 µM | IC50 (THP-1; Responder Cell Lines): < 10 µM | IC50 (RAMOS; [1]): > 10 µM | IC50 (RAMOS; Responder Cell Lines): < 10 µM | IC50 (A204): < 10 µM | IC50 (JEG3): < 10 µM | IC50 (MINO; [1]): > 10 µM | IC50 (MINO; Responder Cell Lines): < 10 µM | IC50 (NCIH82; [1]): > 10 µM | IC50 (NCIH82; Responder Cell Lines): < 10 µM | IC50 (TE671; [1]): > 10 µM | IC50 (TE671; Responder Cell Lines): < 10 µM | IC50 (RDES): > 10 µM | IC50 (RD): > 10 µM | IC50 (HCT15): < 10 µM | IC50 (MT3; [1]): > 10 µM | IC50 (MT3; Responder Cell Lines): < 10 µM | IC50 (OVCAR4): > 10 µM | IC50 (SNB75): > 10 µM | IC50 (SKBR3; [1]): > 10 µM | IC50 (SKBR3; Responder Cell Lines): < 10 µM | IC50 (SKNSH; [1]): > 10 µM | IC50 (SKNSH; Responder Cell Lines): < 10 µM | IC50 (MV4-11; [1]): > 10 µM | IC50 (MV4-11; Responder Cell Lines): < 10 µM | IC50 (SF295; [1]): > 10 µM | IC50 (SF295; Responder Cell Lines): < 10 µM | IC50 (C33A): < 10 µM | IC50 (UMUC3): > 10 µM | IC50 (PANC1): > 10 µM | IC50 (MIAPACA2): > 10 µM
